The test addresses EphA4 (Homo sapiens, UniProt P54764). The test is described as follows: Inhibition of EphA4 signaling (assay not specified).

Structures are written as SMILES.

EphA4, sequence (P54764 20-986, species assumed): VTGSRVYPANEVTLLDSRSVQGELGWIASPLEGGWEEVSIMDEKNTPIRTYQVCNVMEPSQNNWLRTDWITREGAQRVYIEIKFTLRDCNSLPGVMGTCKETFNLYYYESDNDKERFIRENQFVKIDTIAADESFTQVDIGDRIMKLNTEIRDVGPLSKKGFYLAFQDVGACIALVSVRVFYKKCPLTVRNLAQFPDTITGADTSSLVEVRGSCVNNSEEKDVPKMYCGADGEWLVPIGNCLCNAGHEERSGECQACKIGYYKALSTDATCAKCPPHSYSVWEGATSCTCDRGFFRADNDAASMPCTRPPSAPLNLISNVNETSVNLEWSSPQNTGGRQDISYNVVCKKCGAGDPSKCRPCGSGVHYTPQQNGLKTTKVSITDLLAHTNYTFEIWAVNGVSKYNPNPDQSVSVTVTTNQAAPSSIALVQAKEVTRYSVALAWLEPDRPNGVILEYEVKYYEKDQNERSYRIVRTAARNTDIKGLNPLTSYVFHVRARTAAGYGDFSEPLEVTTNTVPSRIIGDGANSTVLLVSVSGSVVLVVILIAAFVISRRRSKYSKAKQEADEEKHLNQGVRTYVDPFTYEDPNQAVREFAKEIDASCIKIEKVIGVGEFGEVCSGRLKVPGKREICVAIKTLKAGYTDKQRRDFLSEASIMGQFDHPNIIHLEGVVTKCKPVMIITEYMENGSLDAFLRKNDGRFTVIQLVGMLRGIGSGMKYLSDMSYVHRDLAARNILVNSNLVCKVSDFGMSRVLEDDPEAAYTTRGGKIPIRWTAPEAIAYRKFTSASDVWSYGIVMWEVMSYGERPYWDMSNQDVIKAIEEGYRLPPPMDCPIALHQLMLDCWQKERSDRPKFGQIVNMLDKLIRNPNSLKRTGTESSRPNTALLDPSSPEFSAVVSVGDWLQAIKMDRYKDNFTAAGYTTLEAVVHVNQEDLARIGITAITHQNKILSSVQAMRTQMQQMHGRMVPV

In the case of `CC[C@H]1CN2CC[C@@]3(C(=O)Nc4ccccc43)[C@@H]2C[C@@H]1/C(=C\OC)C(=O)OC` [IsoRhy, isorhynchophylline], the “inhibition of EphA4 signaling” value is “inactive in inhibiting EphA4 signaling”.

The values above are taken from patent publication US9629830B2, “EphA4 inhibitors as neuroprotective agents” (The Hong Kong University of Science and Technology, priority 2013, dated 2017).
